In paper PMC4260654 (Cell host & microbe, 2014) one finds KI (inactivation) data, which are given here for one compound.

Molecules are shown by their SMILES.

The target in assay [1] is RUMGNA_01526 (Mediterraneibacter gnavus, UniProt A7B1V0). The experiment in a line: X-ray crystal structure at […] Å. It counts as biochemical. To be noted: read-out: Ki.
For assay [2], the target named is T1, CLOSPO_02083 (Clostridium sporogenes, UniProt J7SZ64).
T1 sequence (J7SZ64 1-417): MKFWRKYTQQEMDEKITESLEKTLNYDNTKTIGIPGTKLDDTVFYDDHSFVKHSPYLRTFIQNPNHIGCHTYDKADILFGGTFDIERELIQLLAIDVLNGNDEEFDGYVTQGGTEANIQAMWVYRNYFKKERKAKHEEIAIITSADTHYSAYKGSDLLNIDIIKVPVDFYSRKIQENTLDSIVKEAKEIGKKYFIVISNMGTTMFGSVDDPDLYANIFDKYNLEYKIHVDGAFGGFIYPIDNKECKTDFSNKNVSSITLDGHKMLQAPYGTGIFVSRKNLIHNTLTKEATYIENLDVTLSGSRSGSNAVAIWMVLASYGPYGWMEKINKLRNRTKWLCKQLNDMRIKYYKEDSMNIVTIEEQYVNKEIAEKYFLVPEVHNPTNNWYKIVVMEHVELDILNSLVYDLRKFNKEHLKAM
The experiment in a line: progress curves of tryptamine production by HPLC, kobs vs [I]. In kind it is biochemical. To be noted: read-out: Ki.

Turning to `NC(CF)(Cc1c[nH]c2ccccc12)C(=O)O` (stereo in doubt) [I, (S)-α-FMT], the KI (inactivation) was determined as 178 µM in assay [1] and 0.2 µM in assay [2].
